Assay results as given in PMC8621172, “Manipulating Estrogenic/Anti-Estrogenic Activity of Triphenylethylenes towards Development of Novel Anti-Neoplastic SERMs” (International Journal of Molecular Sciences, 2021).

Legend:
[1] = tested on: Ishikawa endometrial adenocarcinoma cell line; test: Alkaline phosphatase (AlkP) activity in Ishikawa cells; type: cell-based, human; conditions: for Relative alkaline phosphatase activity: 72 h, DMSO set to 1; for effect on AlkP activity (in words): 72 h treatment, 5-dose assay 1 nM to 10 µM
Protocol: Alkaline phosphatase (AlkP) activity in these human endometrial cancer cells is markedly stimulated by estrogens.
Because of the potential SERM character of the compounds tested, their estrogenic effects were studied in an endometrial-derived cell culture model, the human endometrial adenocarcinoma cell line Ishikawa. […] All compounds were screened at two concentrations, 0.1 and 1 µM. Its agonistic effect was compared to the vehicle control DMSO (data shown in Supplementary Materials). […] The four compounds were studied in a concentration range of 1 nM to 10 µM.
Estrogens stimulate the activity of alkaline phosphatase (AlkP) in Ishikawa cells (human endometrial adenocarcinoma cells; kindly provided by Prof. Masato Nishida, National Hospital Organization, Kasumigaura Medical Center, Japan). This enzyme activity is estimated by using the chromogen substrate (4-nitrophenylphosphate). […] The procedure was modified by Littlefield et al., 1990 [42].
After 72 h incubation, cells were harvested, washed twice with PBS, and incubated at −80 °C for about 30 min to lyse the cells. After thawing, the lysates were resuspended in reaction buffer (274 mM mannitol, 100 mM CAPS, 4 mM MgCl2, pH 10.4) containing 4 mM p-nitrophenylphosphate (NPP). After incubation for 1 h in the dark, AlkP activity was assayed by using the hydrolysis of p-nitrophenylphosphate to p-nitrophenol at pH 10.4 and the spectrometric determination of the kinetic of the product formation at 405 nm. All compounds were tested in technical triplicates and biological triplicates. Statistical analysis was performed by analysis of variance (ANOVA) and Tukey’s post-hoc test with the significance level of p < 0.05.

MCF-7 cells = test: NCI growth inhibition on MCF-7 (single dose and five-dose, SRB); type: cell-based, human; conditions: for inhibition at 10 µM / GI50: Homo sapiens, MCF7; for GI50: MCF-7, five-dose assay, 48 h
Protocol: Compounds were submitted to the Developmental Therapeutics Program (DTP) of the National Cancer Institute (NCI). The program uses a panel of 60 human tumor cell lines representing nine tissue types, including leukemia, non-small cell lung cancer (NSCLC), melanoma, colon cancer, ovarian cancer, CNS cancer, renal cancer, prostate cancer, and breast cancer, to screen for potential new anti-cancer agents. […] Primary screening of synthesized compounds was performed by testing a single high dose of 10 µM in the full NCI-60 panel. The percent growth of treated cells relative to the no-drug control and relative to the time zero number of cells was measured, and a mean graph was provided. The percentage inhibition was then calculated by subtracting the values obtained from 100.
All compounds were subjected to the NCI in vitro disease-oriented human cells screening panel assay. The human tumor cell lines of the cancer-screening panel are grown in RPMI 1640 medium containing 5% fetal bovine serum and 2 mM L-glutamine. For a typical screening experiment, cells are inoculated into 96-well microtiter plates in 100 μL at plating densities ranging from 5000 to 40,000 cells/well depending on the doubling time of individual cell lines. After cell inoculation, the microtiter plates are incubated at 37 °C, 5% CO2, 95% air, and 100% relative humidity for 24 h prior to the addition of experimental drugs. After 24 h, two plates of each cell line are fixed in situ with TCA to represent a measurement of the cell population for each cell line at the time of drug addition. Experimental drugs are solubilized in dimethyl sulfoxide at 400-fold the desired final maximum test concentration and stored frozen prior to use. At the time of drug addition, an aliquot of frozen concentrate is thawed and diluted to twice the desired final maximum test concentration with complete medium containing 50 μg/mL gentamicin. Additional four, 10-fold, or ½ log serial dilutions are made to provide a total of five drug concentrations plus control. Aliquots of 100 μL of these different drug dilutions are added to the appropriate microtiter wells already containing 100 μL of medium, resulting in the required final drug concentrations. Following drug addition, the plates are incubated for an additional 48 h at 37 °C, 5% CO2, 95% air, and 100% relative humidity. For adherent cells, the assay is terminated by the addition of cold TCA. Cells are fixed in situ by the gentle addition of 50 μL of cold 50% (w/v) TCA (final concentration, 10% TCA) and incubated for 60 min at 4 °C. The supernatant is discarded, and the plates are washed five times with tap water and air-dried. Sulforhodamine B (SRB) solution (100 μL) at 0.4% (w/v) in 1% acetic acid is added to each well, and plates are incubated for 10 min at room temperature. After staining, unbound dye is removed by washing five times with 1% acetic acid, and the plates are air-dried. Bound stain is subsequently solubilized with a 10 mM trizma base, and the absorbance is read on an automated plate reader at a wavelength of 515 nm. For suspension cells, the methodology is the same except that the assay is terminated by fixing settled cells at the bottom of the wells by gently adding 50 μL of 80% TCA (final concentration, 16% TCA). Compounds are screened at a dose of 10 µM, hits showing mean growth inhibition over 60 cell lines >50% are escalated for 5-dose screening assay. To construct a dose-response curve, about 60 cell lines of nine tumor subpanels were incubated with five concentrations (0.01–100 μM) for each compound. Three response parameters (GI50, TGI, and LC50) were calculated for each cell line.

SMILES | Relative alkaline phosphatase activity ([1]; 1 µM) | inhibition at 10 µM (MCF-7 cells; 10 µM) | other results
COc1ccc(C(C)=C(c2ccc(Cl)cc2)c2ccc(OCCN(C)C)cc2)cc1F [Compound 20, E/Z-(2-{4-[1-(4-Chlorophenyl)-2-(3-fluoro-4-methoxyphenyl)-propenyl]-phenoxy}-ethyl)-dimethyl-amine] | 1.12 ± 0.46 | 68.2% | 
CCN(CC)CCOc1ccc(C(=C(C)c2ccc(OC)c(F)c2)c2ccc(Cl)cc2)cc1 [Compound 21, E/Z-(2-{4-[1-(4-Chlorophenyl)-2-(3-fluoro-4-methoxyphenyl)-propenyl]-phenoxy}-ethyl)-diethyl-amine] | 0.90 ± 0.13 | 29.7% | 
COc1ccc(C(C)=C(c2ccc(Cl)cc2)c2ccc(OCCN3CCCCC3)cc2)cc1 [Compound 12, E/Z-1-(2-{4-[1-(4-Chloro-phenyl)-2-(4-methoxy-phenyl)-propenyl]-phenoxy}-ethyl)-piperidine] |  | 79.7% | Relative alkaline phosphatase activity ([1]; 1 nM): 0.95 ± 0.02; Relative alkaline phosphatase activity ([1]; 10 nM): 0.96 ± 0.01; Relative alkaline phosphatase activity ([1]; 100 nM): 1.14 ± 0.01; Relative alkaline phosphatase activity ([1]; 10 µM): 0.42 ± 0.13; effect on AlkP activity (in words) [1]: increase the AlkP activity in a dose-pendent manner; GI50 (MCF-7 cells): 600 nM
COc1cc(C(C)=C(c2ccc(Cl)cc2)c2ccc(OCCN(C)C)cc2)ccc1F [Compound 27, E/Z-(2-{4-[1-(4-Chlorophenyl)-2-(4-fluoro-3-methoxyphenyl)-propenyl]-phenoxy}-ethyl)-dimethyl-amine] |  | 68.3% | 
CC(=C(c1ccc(Cl)cc1)c1ccc(OCCN2CCCCCC2)cc1)c1ccccc1 [Compound 9, E/Z-1-(2-{4-[1-(4-Chloro-phenyl)-2-phenyl-propenyl]-phenoxy}-ethyl)-azepane] | 2.94 ± 1.29 | 24% | 
COc1cc(C(C)=C(c2ccc(Cl)cc2)c2ccc(OCCN3CCCCCC3)cc2)ccc1F [Compound 26, E/Z-1-(2-{4-[1-(4-Chlorophenyl)-2-(4-fluoro-3-methoxyphenyl)-propenyl]-phenoxy}-ethyl)-azepane] |  | 36.5% | 
CC(=C(c1ccc(Cl)cc1)c1ccc(OCCCN(C)C)cc1)c1ccccc1 [Compound 5, E/Z-(3-{4-[1-(4-Chloro-phenyl)-2-phenyl-propenyl]-phenoxy}-propyl)-dimethyl-amine] | 1.08 ± 0.33 | 55% | Relative alkaline phosphatase activity ([1]; 1 nM): 0.93 ± 0.64; Relative alkaline phosphatase activity ([1]; 10 nM): 0.95 ± 0.37; Relative alkaline phosphatase activity ([1]; 100 nM): 1.05 ± 0.30; Relative alkaline phosphatase activity ([1]; 10 µM): 0.21 ± 0.16; effect on AlkP activity (in words) [1]: No significant effects
COc1ccc(C(C)=C(c2ccc(Cl)cc2)c2ccc(OCCN3CCCC3)cc2)cc1F [Compound 16, E/Z-1-(2-{4-[1-(4-Chlorophenyl)-2-(3-fluoro-4-methoxyphenyl)-propenyl]-phenoxy}-ethyl)-pyrrolidine] | 0.98 ± 0.53 | 90% | GI50 (MCF-7 cells): 2410 nM
COc1ccc(C(C)=C(c2ccc(Cl)cc2)c2ccc(OCCCN(C)C)cc2)cc1F [Compound 15, E/Z-(3-{4-[1-(4-Chlorophenyl)-2-(3-fluoro-4-methoxyphenyl)-propenyl]-phenoxy}-propyl)-dimethyl-amine] | 0.86 ± 0.12 | 87% | 
CC(=C(c1ccc(Cl)cc1)c1ccc(OCCN2CCCCC2)cc1)c1ccccc1 [Compound 7, E/Z-1-(2-{4-[1-(4-Chloro-phenyl)-2-phenyl-propenyl]-phenoxy}-ethyl)-piperidine] | 2.55 ± 1.80 | 56.4% | 
COc1cc(C(C)=C(c2ccc(Cl)cc2)c2ccc(OCCN3CCOCC3)cc2)ccc1F [Compound 25, E/Z-4-(2-{4-[1-(4-Chlorophenyl)-2-(4-fluoro-3-methoxyphenyl)-propenyl]-phenoxy}-ethyl)-morpholine] |  | 2.75% | 
COc1ccc(C(C)=C(c2ccc(Cl)cc2)c2ccc(OCCN3CCCC3)cc2)cc1 [Compound 11, E/Z-1-(2-{4-[1-(4-Chloro-phenyl)-2-(4-methoxy-phenyl)-propenyl]-phenoxy}-ethyl)-pyrrolidine] |  | 87% | Relative alkaline phosphatase activity ([1]; 1 nM): 1.25 ± 0.61; Relative alkaline phosphatase activity ([1]; 10 nM): 1.13 ± 0.31; Relative alkaline phosphatase activity ([1]; 100 nM): 1.75 ± 0.50; Relative alkaline phosphatase activity ([1]; 10 µM): 1.36 ± 0.38; effect on AlkP activity (in words) [1]: increase the AlkP activity in a dose-pendent manner; GI50 (MCF-7 cells): 890 nM
COc1cc(C(C)=C(c2ccc(Cl)cc2)c2ccc(OCCCN(C)C)cc2)ccc1F [Compound 22, E/Z-(3-{4-[1-(4-Chlorophenyl)-2-(4-fluoro-3-methoxyphenyl)-propenyl]-phenoxy}-propyl)-dimethyl-amine] |  | 33.2% | 
CC(=C(c1ccc(Cl)cc1)c1ccc(OCCN2CCCC2)cc1)c1ccccc1 [Compound 6, E/Z-1-(2-{4-[1-(4-Chloro-phenyl)-2-phenyl-propenyl]-phenoxy}-ethyl)-pyrrolidine] | 2.55 ± 1.35 | 66.2% | 
CC(=C(c1ccc(Cl)cc1)c1ccc(OCCN2CCOCC2)cc1)c1ccccc1 [Compound 8, E/Z-4-(2-{4-[1-(4-Chloro-phenyl)-2-phenyl-propenyl]-phenoxy}-ethyl)-morpholine] | 1.16 ± 0.15 | 30.9% | 
COc1ccc(C(C)=C(c2ccc(O)cc2)c2ccc(Cl)cc2)cc1F [Compound 3, E/Z-4-[1-(4-Chlorophenyl)-2-(3-fluoro-4-methoxyphenyl)propenyl]-phenol] | 1.13 ± 0.43 |  | Growth Inhibition on MCF-7 (%) (MCF-7 cells; 10 µM): No inhibition
COc1cc(C(C)=C(c2ccc(Cl)cc2)c2ccc(OCCN3CCCCC3)cc2)ccc1F [Compound 24, E/Z-1-(2-{4-[1-(4-Chlorophenyl)-2-(4-fluoro-3-methoxyphenyl)-propenyl]-phenoxy}-ethyl)-piperidine] |  | 49.3% | 
CCN(CC)CCOc1ccc(C(=C(C)c2ccc(F)c(OC)c2)c2ccc(Cl)cc2)cc1 [Compound 28, E/Z-(2-{4-[1-(4-Chlorophenyl)-2-(4-fluoro-3-methoxyphenyl)-propenyl]-phenoxy}-ethyl)-diethyl-amine] |  | > 100% | GI50 (MCF-7 cells): 2170 nM
COc1cc(C(C)=C(c2ccc(Cl)cc2)c2ccc(OCCN3CCCC3)cc2)ccc1F [Compound 23, E/Z-1-(2-{4-[1-(4-Chlorophenyl)-2-(4-fluoro-3-methoxyphenyl)-propenyl]-phenoxy}-ethyl)-pyrrolidine] |  | 73.5% | 
